The assay addresses T1, human adenosine A1 receptor (Homo sapiens, UniProt P30542).
T1 construct: expressed in transfected cells; host or cells: CHO cells
T1 sequence (P30542 1-326): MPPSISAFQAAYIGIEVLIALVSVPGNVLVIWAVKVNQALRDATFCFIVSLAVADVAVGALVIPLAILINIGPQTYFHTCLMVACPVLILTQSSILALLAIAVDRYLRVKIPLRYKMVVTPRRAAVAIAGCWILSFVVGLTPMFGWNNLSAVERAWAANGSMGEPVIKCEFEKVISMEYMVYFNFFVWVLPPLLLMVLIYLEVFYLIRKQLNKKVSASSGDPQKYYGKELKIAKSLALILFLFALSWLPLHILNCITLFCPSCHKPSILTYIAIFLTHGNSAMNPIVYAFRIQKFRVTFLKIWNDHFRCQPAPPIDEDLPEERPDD
Description: Radioligand binding assay, displacement of [3H]DPCPX. To be noted: CHO cells expressing human adenosine A1 receptors; Ki ± SEM (n = 3); read-out: A1 Ki (displacement of specific [3H]DPCPX binding). The procedure: Radioligand Binding Studies [^3H]DPCPX was purchased from Amersham. All compounds made were tested in radioligand binding assays to determine their affinities at the human adenosine A1 receptor. The affinities at the A1 receptors were determined on CHO cells expressing the human receptors, using [^3H]DPCPX as the radioligand according to a previously described method.^9
Data Analysis Competition binding data were fit to a single-site binding model and plotted using the software package Prism (Graph Pad, San Diego, Calif., USA). The Cheng-Prusoff equation Ki=IC50/(1+[I]/Kd) was used to calculate Ki values, where Ki is the affinity constant for the competing ligand, [I] is the concentration of the free radioligand, and Kd is the affinity constant for the radioligand.
As for `CCC(CC)C(=O)Nc1cc(-c2ccccc2)nc(-c2ccccc2)n1` [Compound 19, N-(2,6-Diphenyl-pyrimidin-4-yl)-2-ethyl-butyramide], the inhibition constant Ki came to 6.35 ± 0.4 nM.

With `CC(C)CC(=O)Nc1cc(-c2ccccc2)nc(-c2ccccc2)n1` [Compound 18, N-(2,6-Diphenyl-pyrimidin-4-yl)-3-methyl-butyramide], the inhibition constant Ki was 14.8 ± 2.7 nM.

As for `O=C(Nc1cc(-c2ccccc2)nc(-c2ccccc2)n1)c1ccccc1` [Compound 13, N-(2,6-Diphenyl-pyrimidin-4-yl)-benzamide], the inhibition constant (Ki) is 671 ± 113 nM.

For the compound `CCC(C)C(=O)Nc1cc(-c2ccccc2)nc(-c2ccccc2)n1` (stereo not drawn) [Compound 20, N-(2,6-Diphenyl-pyrimidin-4-yl)-2-methyl-butyramide], the inhibitory constant (Ki) came out at 2.22 ± 1.1 nM.

On to `O=C(Nc1cc(-c2ccccc2)nc(-c2ccccc2)n1)C1CCCC1` [Compound 24, Cyclopentanecarboxylic acid (2,6-diphenyl-pyrimidin-4-yl)-amide], for which the Ki turned out to be 2.14 ± 0.07 nM.

For the compound `CC(=O)Nc1cc(-c2ccccc2)nc(-c2ccccc2)n1` [Compound 14, N-(2,6-Diphenyl-pyrimidin-4-yl)-acetamide], the Ki was 37.5 ± 8.1 nM.

Turning to `CCC(=O)Nc1cc(-c2ccccc2)nc(-c2ccccc2)n1` [Compound 15, N-(2,6-Diphenyl-pyrimidin-4-yl)-propionamide], the Ki stood at 9.5 ± 4.6 nM.

Take `CC(C)(C)CC(=O)Nc1cc(-c2ccccc2)nc(-c2ccccc2)n1` [Compound 22, N-(2,6-Diphenyl-pyrimidin-4-yl)-3,3-dimethyl-butyramide]: the Ki came out at 8.75 ± 4.1 nM.

As to `CC(C)(C)C(=O)Nc1cc(-c2ccccc2)nc(-c2ccccc2)n1` [Compound 21, N-(2,6-Diphenyl-pyrimidin-4-yl)-2,2-dimethyl-propionamide], the Ki turned out to be 27.7 ± 6.2 nM.

Regarding `CCCC(=O)Nc1cc(-c2ccccc2)nc(-c2ccccc2)n1` [Compound 16, N-(2,6-Diphenyl-pyrimidin-4-yl)-butyramide], the inhibition constant (Ki) was 17.6 ± 5.3 nM.

Turning to `O=C(Nc1cc(-c2ccccc2)nc(-c2ccccc2)n1)C1CCC1` [Compound 23, Cyclobutanecarboxylic acid (2,6-diphenyl-pyrimidin-4-yl)-amide], the Ki came to 6.49 ± 2.2 nM.

Turning to `O=C(Nc1cc(-c2ccccc2)nc(-c2ccccc2)n1)C1CCCCC1` [Compound 25, Cyclohexanecarboxylic acid (2,6-diphenyl-pyrimidin-4-yl)-amide], the Ki came out at 15.5 ± 8.4 nM.

The values are drawn from patent US7449470B2, “Substituted pyrimidines as ligands of adenosine receptors” (Universiteit Leiden, priority 2003, dated 2008).
